Where two headings read alike, the source gives them in different places.
Experiments:
[1] = test system: HSV-1; conditions: for Log TCID50/100 ul: preliminary
Experimental: Experiments: 10 μL of virus stock was mixed with 100% saturated Ca(OH)2 (Final Ca(OH)2 concentration 99%) and incubated for different lengths of time. Then the mixture was diluted and the viable number of virus (Log TCID) was measured.
99% saturated Ca(OH)2 was used to treat 2 viruses using different incubation times (5 min to 1 hr).

[2] = test system: Aspergillus niger(#9642); conditions: 24 hr, very spotty growth, not yet a confluence lawn, other replicates patchy lawn

Structure (SMILES)	log kill ([1]; HSV-1, in 1 hr) [log]	Log TCID50/100 ul ([1]; HSV-1, incubation 0 min) [Log TCID50/100 ul]	Log TCID50/100 ul ([1]; HSV-1, incubation 5 min) [Log TCID50/100 ul]	Log TCID50/100 ul ([1]; HSV-1, incubation 10 min) [Log TCID50/100 ul]	Log TCID50/100 ul ([1]; HSV-1, incubation 15 min) [Log TCID50/100 ul]	Log TCID50/100 ul ([1]; HSV-1, incubation 30 min) [Log TCID50/100 ul]	Log TCID50/100 ul ([1]; HSV-1, incubation 60 min) [Log TCID50/100 ul]	Zone of Inhibition ([2]; paste volume 0.2 ml)	Zone of Inhibition ([2]; paste volume 0.3 ml)
[Ca+2].[OH-].[OH-] [99% saturated Ca(OH)2, calcium hydroxide]	> 3.5	6.5	6	5.5	3.5	3	<3		
[Ca+2].[OH-].[OH-] [Ca(OH)2 paste, calcium hydroxide]								—, ~35≠, — mm	—, ~34≠, — mm

From patent US20160044927A1, “Disinfectant Formulation Comprising Calcium Hydroxide and Sodium Hypochlorite” (priority 2012, published 2016)
